# Laboratory results: patent publication US6642398B2, “Mono-and disubstituted 3-propyl gamma-aminobutyric acids” (Warner-Lambert Company, priority 1999, dated 2003)
# Counter-ions that a name gives are not always drawn. Like-named read-outs stand apart in the source and are kept apart here.
# What was measured:
# [1] = test system: DBA/2 mice; assay: Anticonvulsant % Protect (DBA2 mouse model of anticonvulsant efficacy); format: in vivo; settings: for responders at 30 mg/kg: Mus musculus
# Procedure: All procedures were carried out in compliance with the NIH Guide for the Care and Use of Laboratory Animals under a protocol approved by the Parke-Davis Animal Use Committee. Male DBA/2 mice, 3 to 4 weeks old were obtained from Jackson Laboratories, Bar Harbour, Me. Immediately before anticonvulsant testing, mice were placed upon a wire mesh, 4 inches square, suspended from a steel rod. The square was slowly inverted through 180° and mice observed for 30 seconds. Any mouse falling from the wire mesh was scored as ataxic (Coughenour L. L., McLean J. R., Parker R. B., “A new device for the rapid measurement of impaired motor function in mice,” Pharm. Biochem. Behav., 1977;6(3):351-3). Mice were placed into an enclosed acrylic plastic chamber (21 cm height, approximately 30 cm diameter) with a high-frequency speaker (4 cm diameter) in the center of the top lid. An audio signal generator (Protek model B-810) was used to produce a continuous sinusoidal tone that was swept linearly in frequency between 8 kHz and 16 kHz once each 10 msec. The average sound pressure level (SPL) during stimulation was approximately 100 dB at the floor of the chamber. Mice were placed within the chamber and allowed to acclimatize for one minute. DBA/2 mice in the vehicle-treated group responded to the sound stimulus (applied until tonic extension occurred, or for a maximum of 60 sec) with a characteristic seizure sequence consisting of wild running followed by clonic seizures, and later by tonic extension, and finally by respiratory arrest and death in 80% or more of the mice. In vehicle-treated mice, the entire sequence of seizures to respiratory arrest lasts approximately 15 to 20 seconds. The incidence of all the seizure phases in the drug-treated and vehicle-treated mice was recorded, and the occurrence of tonic seizures were used for calculating anticonvulsant ED50 values by probit analysis (Litchfield J. T., Wilcoxon F. “A simplified method for evaluating dose-effect experiments,” J. Pharmacol., 1949;96:99-113). Mice were used only once for testing at each dose point. Groups of DBA/2 mice (n=5-10 per dose) were tested for sound-induced seizure responses 2 hours (previously determined time of peak effect) after given drug orally. All drugs in the present study were dissolved in distilled water and given by oral gavage in a volume of 10 mL/kg of body weight. Compounds that are insoluble will be suspended in 1% carboxymethocellulose. Doses are expressed as weight of the active drug moiety.
# [2] = 30 mg/kg PO, 1 h, read-out: Anticonvulsant % Protect 1 h
# [3] = 30 mg/kg PO, 2 h, read-out: Anticonvulsant % Protect 2 h
Compound,"responders at 30 mg/kg [1, 2] [%]","responders at 30 mg/kg [1, 3] [%]",also measured
"CCCC(C(C)C)C(CN)CC(=O)O (stereo not drawn) (as salt: HCl) [3-aminomethyl-4-isopropyl-heptanoic acid, 3-Aminomethyl-4-isopropyl-heptanoic acid]",,,melting point: 160 to 170 °C
"CC(C)C[C@H](CN)CC(=O)O [Pregabalin, (S)-3-(Aminomethyl)-5-methylhexanoic acid, reference compound]",,,"Anticonvulsant % Protect 2 h ([1]; 30 mg/kg PO, 2 h): 100%"
"CC[C@@H](C)C[C@H](CN)CC(=O)O [(3S,5R)-3-Aminomethyl-5-methyl-heptanoic acid]",80,,
CCC(CC)CC(CN)CC(=O)O (stereo not drawn),,,"Anticonvulsant % Protect 2 hr ([1]; Table 1, 2 hr): 20%"
"CC(C)[C@@H](C)[C@H](CN)CC(=O)O [(3R,4R)-3-Aminomethyl-4,5-dimethyl-hexanoic acid]",100,100,
"CC[C@H](C)C[C@H](CN)CC(=O)O [(3S,5S)-3-Aminomethyl-5-methyl-heptanoic acid]",0,0,
"CC(C)[C@@H](C)[C@@H](CN)CC(=O)O [(3S,4R)3-Aminomethyl 4,5-dimethyl-hexanoic acid]",20,20,
"CC(C)[C@H](C)[C@H](CN)CC(=O)O [(3R,4S)-3-Aminomethyl-4,5-dimethyl-hexanoic acid]",20,0,
